≈ marks a conversion by molar mass, not a printed value.
How the values were obtained:
Experiment in all cases: In vitro antibacterial activity test (broth microdilution)
Format in all cases: cell-based
M. catarrhalis 2524 = conditions: Moraxella catarrhalis; M. catarrhalis 2524; read-out: MIC90
Method: (§1) To evaluate antibacterial activity of each of the compounds of Examples 1 to 68, in vitro antibacterial activity test was performed.
(§2) The in vitro antibacterial activity was evaluated by measuring MIC90 (ug/mL) of each of the compounds of Examples 1 to 68, which is defined as the lowest concentration of an antibiotic that will inhibit the visible growth of 90% of microorganisms after incubation as compared with a control group to which the antibiotic is not treated. MIC90 values were measured by the broth microdilution method developed by the Clinical and Laboratory Standards Institute (CLSI) (see CLSI M7-A5, Methods for Dilution Antimicrobial Susceptibility Test for Bacteria that Grow Aerobically-Fifth Edition (2000): CLSI, Villanova, Pa.).
(§3) In vitro antibacterial activity was measured with respect to the following 19 clinical isolates: M. catarrhalis; P. aeruginosa (5 strains); K. pneumoniae (6 strains); A. baumannii (3 strains); E. coli (2 strains); A. calcoaceticus; and E. cloacae.
(§4) Test compounds each (the cephalosporin derivative compounds prepared in Examples 1 to 68) were dissolved in DMSO at the concentration of 10,240 ug/mL, were diluted by two fold with DMSO, and then were diluted by twenty fold with sterilized distilled water. The final concentration in the antibacterial activity test was in the range of […] to 128 ug/mL, and the final concentration of DMSO used as an adjuvant was 2.5% (V/V).

P. aeruginosa 1912E = conditions: Pseudomonas aeruginosa, 1912E, read-out: MIC90
Method: as §1, §2, §3, §4

P. aeruginosa 40 = conditions: Pseudomonas aeruginosa, 40, P. aeruginosa 40; read-out: MIC90
Method: as §1, §2, §3, §4

P. aeruginosa 37 = conditions: Pseudomonas aeruginosa, 37, P. aeruginosa 37; read-out: MIC90
Method: as §1, §2, §3, §4

[1] = tested on: A. calcoaceticus ATCC15473; conditions: Acinetobacter calcoaceticus; A. calcoaceticus ATCC15473; read-out: MIC90
Method: as §1, §2, §3, §4

E. cloacae β19 = conditions: Enterobacter cloacae, read-out: MIC90
Method: as §1, §2, §3, §4

A. baumannii 52 = conditions: Acinetobacter baumannii; A. baumannii 52; read-out: MIC90
Method: as §1, §2, §3, §4

P. aeruginosa 6065Y = conditions: Pseudomonas aeruginosa, read-out: MIC90
Method: as §1, §2, §3, §4

E. coli β4 = conditions: Escherichia coli, read-out: MIC90
Method: as §1, §2, §3, §4

K. pneumoniae 2011E = conditions: Klebsiella pneumoniae, 2011E, K. pneumoniae 2011E; read-out: MIC90
Method: as §1, §2, §3, §4

A. baumannii 49 = conditions: Acinetobacter baumannii; A. baumannii 49; read-out: MIC90
Method: as §1, §2, §3, §4

P. aeruginosa 43 = conditions: Pseudomonas aeruginosa; P. aeruginosa 43; read-out: MIC90
Method: as §1, §2, §3, §4

A. baumannii 46 = conditions: Acinetobacter baumannii; A. baumannii 46; read-out: MIC90
Method: as §1, §2, §3, §4

E. coli AG100 = conditions: Escherichia coli, AG100, E. coli AG100; read-out: MIC90
Method: as §1, §2, §3, §4

K. pneumoniae β14 = conditions: Klebsiella pneumoniae, read-out: MIC90
Method: as §1, §2, §3, §4

| Compound | MIC90 (M. catarrhalis 2524) [µg/mL] | MIC90 (P. aeruginosa 1912E) [µg/mL] | MIC90 (P. aeruginosa 40) [µg/mL] | MIC90 (P. aeruginosa 37) [µg/mL] | MIC90 [1] [µg/mL] | MIC90 (E. cloacae β19) [µg/mL] | MIC90 (A. baumannii 52) [µg/mL] | MIC90 (P. aeruginosa 6065Y) [µg/mL] | MIC90 (E. coli β4) [µg/mL] | MIC90 (K. pneumoniae 2011E) [µg/mL] | MIC90 (A. baumannii 49) [µg/mL] | MIC90 (P. aeruginosa 43) [µg/mL] | MIC90 (A. baumannii 46) [µg/mL] | MIC90 (E. coli AG100) [µg/mL] | MIC90 (K. pneumoniae β14) [µg/mL] |
| --- | --- | --- | --- | --- | --- | --- | --- | --- | --- | --- | --- | --- | --- | --- | --- |
| Cn1cc(O)c(=O)cc1C(=O)NCCNc1c[n+](CC2=C(C(=O)[O-])N3C(=O)[C@@H](NC(=O)/C(=N\OC(C)(C)C(=O)O)c4csc(N)n4)C3SC2)cnc1N (stereo partly drawn) [Compound 2] | 1 (≈ 1.3 µM) | 2 (≈ 2.59 µM) | 4 (≈ 5.18 µM) | 4 (≈ 5.18 µM) | 2 (≈ 2.59 µM) | > 128 | > 128 | 16 (≈ 20.7 µM) | 4 (≈ 5.18 µM) | 4 (≈ 5.18 µM) | > 128 | 8 (≈ 10.4 µM) | 4 (≈ 5.18 µM) | 0.25 (≈ 0.324 µM) | 64 (≈ 82.9 µM) |
| C[C@H](O/N=C(\C(=O)N[C@@H]1C(=O)N2C(C(=O)[O-])=C(C[n+]3cnc(N)c(NCCNC(=O)c4cc(=O)c(O)cn4O)c3)CSC12)c1csc(N)n1)C(=O)O (stereo partly drawn) [Compound 3] | 2 (≈ 2.63 µM) | 32 (≈ 42.1 µM) | 0.125 (≈ 0.165 µM) | 1 (≈ 1.32 µM) | 0.25 (≈ 0.329 µM) | 2 (≈ 2.63 µM) | 128 (≈ 168 µM) | 0.5 (≈ 0.658 µM) | 1 (≈ 1.32 µM) | 1 (≈ 1.32 µM) | > 128 | 0.25 (≈ 0.329 µM) | 2 (≈ 2.63 µM) | < 0.0625 | 64 (≈ 84.2 µM) |
| CN(CCNc1c[n+](CC2=C(C(=O)[O-])N3C(=O)[C@@H](NC(=O)/C(=N\OC(C)(C)C(=O)O)c4csc(N)n4)C3SC2)cnc1N)C(=O)c1ccc(O)c(O)c1 (stereo partly drawn) [Compound 27] | 0.25 (≈ 0.324 µM) | 1 (≈ 1.3 µM) | 2 (≈ 2.59 µM) | 2 (≈ 2.59 µM) | 4 (≈ 5.19 µM) | 16 (≈ 20.8 µM) | > 128 | 4 (≈ 5.19 µM) | 2 (≈ 2.59 µM) | 2 (≈ 2.59 µM) | > 128 | 1 (≈ 1.3 µM) | 16 (≈ 20.8 µM) | 1 (≈ 1.3 µM) | 32 (≈ 41.5 µM) |
| CC(C)(O/N=C(\C(=O)N[C@@H]1C(=O)N2C(C(=O)[O-])=C(C[n+]3cnc(N)c(NC(=O)CCNC(=O)c4ccc(O)c(O)c4)c3)CSC12)c1csc(N)n1)C(=O)O (stereo partly drawn) [Compound 28] | 8 (≈ 10.2 µM) | 32 (≈ 40.8 µM) | 16 (≈ 20.4 µM) | 8 (≈ 10.2 µM) | 1 (≈ 1.27 µM) | 128 (≈ 163 µM) | 16 (≈ 20.4 µM) | 16 (≈ 20.4 µM) | 8 (≈ 10.2 µM) | 8 (≈ 10.2 µM) | > 128 | 4 (≈ 5.1 µM) | 8 (≈ 10.2 µM) | > 128 | 64 (≈ 81.6 µM) |
| CC(C)(O/N=C(\C(=O)N[C@@H]1C(=O)N2C(C(=O)[O-])=C(C[n+]3cnc(N)c(NCCCNC(=O)c4ccc(O)c(O)c4)c3)CSC12)c1csc(N)n1)C(=O)O (stereo partly drawn) [Compound 31] | 1 (≈ 1.3 µM) | 1 (≈ 1.3 µM) | 2 (≈ 2.59 µM) | 1 (≈ 1.3 µM) | 1 (≈ 1.3 µM) | 16 (≈ 20.8 µM) | 64 (≈ 83 µM) | 4 (≈ 5.19 µM) | 8 (≈ 10.4 µM) | 8 (≈ 10.4 µM) | 32 (≈ 41.5 µM) | 1 (≈ 1.3 µM) | 4 (≈ 5.19 µM) | 0.25 (≈ 0.324 µM) | 32 (≈ 41.5 µM) |
| CC(C)(O/N=C(\C(=O)N[C@@H]1C(=O)N2C(C(=O)[O-])=C(C[n+]3cnc(N)c(NC(=O)CNC(=O)c4ccc(O)c(O)c4)c3)CSC12)c1csc(N)n1)C(=O)O (stereo partly drawn) [Compound 32] | 0.25 (≈ 0.324 µM) | 2 (≈ 2.59 µM) | 4 (≈ 5.19 µM) | 4 (≈ 5.19 µM) | 0.5 (≈ 0.649 µM) | 128 (≈ 166 µM) | 16 (≈ 20.8 µM) | 4 (≈ 5.19 µM) | 8 (≈ 10.4 µM) | 1 (≈ 1.3 µM) | 32 (≈ 41.5 µM) | 0.5 (≈ 0.649 µM) | 1 (≈ 1.3 µM) | < 0.0625 | 64 (≈ 83 µM) |
| CC(C)(O/N=C(\C(=O)N[C@@H]1C(=O)N2C(C(=O)[O-])=C(C[n+]3cnc(N)c(NCCNC(=O)c4ccc(O)c(C(=O)O)c4)c3)CSC12)c1csc(N)n1)C(=O)O (stereo partly drawn) [Compound 33] | 2 (≈ 2.55 µM) | 64 (≈ 81.6 µM) | 128 (≈ 163 µM) | > 128 | 128 (≈ 163 µM) | > 128 | > 128 | 128 (≈ 163 µM) | 64 (≈ 81.6 µM) | 16 (≈ 20.4 µM) | > 128 | > 128 | 128 (≈ 163 µM) | 16 (≈ 20.4 µM) | 128 (≈ 163 µM) |
| C[C@H](O/N=C(\C(=O)N[C@@H]1C(=O)N2C(C(=O)[O-])=C(C[n+]3cnc(N)c(NCCNC(=O)c4ccc(O)c(O)c4)c3)CSC12)c1csc(N)n1)C(=O)O (stereo partly drawn) [Compound 34] | 1 (≈ 1.35 µM) | 32 (≈ 43.1 µM) | 0.5 (≈ 0.673 µM) | 2 (≈ 2.69 µM) | 0.5 (≈ 0.673 µM) | 16 (≈ 21.5 µM) | 128 (≈ 172 µM) | 1 (≈ 1.35 µM) | 1 (≈ 1.35 µM) | 0.25 (≈ 0.337 µM) | 128 (≈ 172 µM) | 0.5 (≈ 0.673 µM) | 2 (≈ 2.69 µM) | < 0.0625 | 128 (≈ 172 µM) |
| C[C@H](O/N=C(\C(=O)N[C@@H]1C(=O)N2C(C(=O)[O-])=C(C[n+]3cnc(N)c(NCCNC(=O)c4ccc(O)c(O)c4)c3)CSC12)c1nc(N)sc1Cl)C(=O)O (stereo partly drawn) [Compound 35] | < 0.0625 | 2 (≈ 2.57 µM) | 1 (≈ 1.29 µM) | 0.25 (≈ 0.322 µM) | 0.5 (≈ 0.643 µM) | 0.5 (≈ 0.643 µM) | 2 (≈ 2.57 µM) | 2 (≈ 2.57 µM) | 1 (≈ 1.29 µM) | 2 (≈ 2.57 µM) | 4 (≈ 5.15 µM) | 1 (≈ 1.29 µM) | 4 (≈ 5.15 µM) | < 0.0625 | 16 (≈ 20.6 µM) |
